One assay concerns the target T1, FGFR1 (Homo sapiens, UniProt P11362).
T1 construct: purchased Upstate Company
Briefly: Inhibition of FGFR1 kinase (fluorescence polarization kinase assay). It counts as biochemical. The following applies: Table 2, class symbols; read-out: FGFR1 IC50. As for the experimental part:
(§1) Inhibition activities of kinases of the inventive compounds (test compounds) prepared in the Examples were assessed and represented as IC50 values.
(§2) Kinases used in Test Examples 1 to 3 were purchased from Upstate Company.
(§3) 100 mM HEPES (pH 7.4), 25 mM MgCl2, 10 mM MnCl2 and 250 μM Na3VO4 were mixed to prepare a kinase buffer. Each of kinases to be measured was diluted to a concentration of 25˜300 ng per one reaction according to its activity with the kinase buffer. Also, each of the test compounds was serially diluted to a concentration starting from 100 nM up to 0.1 nM with the kinase buffer. 10 μl of the serially diluted solution of each of the test compounds and 10 μl of the diluted kinase were added to each well of a 96-well microplate, and the plate was incubated at room temperature for 10 mins. 10 μl of a substrate and 10 μl of ATP were successively added thereto to initiate a kinase reaction, and the resulting mixture was incubated at room temperature for 1 hour. The ATP was used in a form of a solution diluted to a concentration determined according to a kinase's Km value with distilled water. 10˜100 ng/mL poly(Glu, Tyr) 4:1 (Sigma) was used as the substrate. 10 μl of 6 mM EDTA was added to each well and stirred for 5 mins to terminate the kinase reaction. For a measurement of phosphorylation degree, 50 μl of a solution containing anti-phosphotyrosine antibody and fluorescein-labeled phosphopeptide was added to the reaction mixture, followed by incubating for 30 mins. The FP (fluorescence polarization) value of each well was determined with a Victor™ D fluorescence meter (Perkin Elmer Lifesciences).
(§4) IC50, the concentration at which 50% inhibition occurs, was evaluated based on the difference between the final concentration of the test cells and the initial concentration of the cells incubated in a well not-treated with the test compound which was regarded as 100%. IC50 values of the test compounds on the FGFR kinase were shown in Table 2, and those of the test compound obtained in Example 177 on various kinases, in Table 3.
In general terms: Polarisation of emitted light reports the rotation of a fluorescent probe.

Another assay has as its target T2, FGFR3 (Homo sapiens, UniProt P22607).
T2 construct: purchased Upstate Company
The assay is described as follows: Inhibition of FGFR3 kinase (fluorescence polarization kinase assay). Particulars: Table 2, class symbols; read-out: FGFR3 IC50. It counts as biochemical. As for the experimental part: as §1, §2, §3, §4

Here are results for five molecules from US10112954B2, “Bicyclic heteroaryl derivatives having inhibitory activity for protein kinase” (HANMI PHARM. CO., LTD., priority 2010, dated 2018).

T2 sequence (P22607 23-806, species assumed): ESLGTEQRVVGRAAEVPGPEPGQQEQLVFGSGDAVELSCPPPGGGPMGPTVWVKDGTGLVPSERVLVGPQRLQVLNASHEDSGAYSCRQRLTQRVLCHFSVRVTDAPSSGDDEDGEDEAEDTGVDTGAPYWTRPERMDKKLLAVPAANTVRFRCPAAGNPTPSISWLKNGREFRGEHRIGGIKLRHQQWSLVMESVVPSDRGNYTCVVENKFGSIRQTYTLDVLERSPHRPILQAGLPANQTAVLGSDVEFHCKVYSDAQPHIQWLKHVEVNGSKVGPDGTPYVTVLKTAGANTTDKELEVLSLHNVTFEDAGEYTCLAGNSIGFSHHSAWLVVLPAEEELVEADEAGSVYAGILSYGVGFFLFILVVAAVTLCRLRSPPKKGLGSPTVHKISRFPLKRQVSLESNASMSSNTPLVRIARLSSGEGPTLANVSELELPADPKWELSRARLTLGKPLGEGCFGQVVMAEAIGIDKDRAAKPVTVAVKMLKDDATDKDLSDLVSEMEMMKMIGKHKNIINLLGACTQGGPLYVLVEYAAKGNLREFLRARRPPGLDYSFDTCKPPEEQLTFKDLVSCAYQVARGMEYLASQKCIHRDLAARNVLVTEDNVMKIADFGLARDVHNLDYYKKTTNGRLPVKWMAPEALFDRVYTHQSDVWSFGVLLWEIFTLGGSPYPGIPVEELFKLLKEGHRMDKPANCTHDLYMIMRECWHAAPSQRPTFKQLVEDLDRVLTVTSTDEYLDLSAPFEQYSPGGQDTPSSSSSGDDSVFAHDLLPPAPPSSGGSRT
T1 sequence (P11362 22-822, species assumed): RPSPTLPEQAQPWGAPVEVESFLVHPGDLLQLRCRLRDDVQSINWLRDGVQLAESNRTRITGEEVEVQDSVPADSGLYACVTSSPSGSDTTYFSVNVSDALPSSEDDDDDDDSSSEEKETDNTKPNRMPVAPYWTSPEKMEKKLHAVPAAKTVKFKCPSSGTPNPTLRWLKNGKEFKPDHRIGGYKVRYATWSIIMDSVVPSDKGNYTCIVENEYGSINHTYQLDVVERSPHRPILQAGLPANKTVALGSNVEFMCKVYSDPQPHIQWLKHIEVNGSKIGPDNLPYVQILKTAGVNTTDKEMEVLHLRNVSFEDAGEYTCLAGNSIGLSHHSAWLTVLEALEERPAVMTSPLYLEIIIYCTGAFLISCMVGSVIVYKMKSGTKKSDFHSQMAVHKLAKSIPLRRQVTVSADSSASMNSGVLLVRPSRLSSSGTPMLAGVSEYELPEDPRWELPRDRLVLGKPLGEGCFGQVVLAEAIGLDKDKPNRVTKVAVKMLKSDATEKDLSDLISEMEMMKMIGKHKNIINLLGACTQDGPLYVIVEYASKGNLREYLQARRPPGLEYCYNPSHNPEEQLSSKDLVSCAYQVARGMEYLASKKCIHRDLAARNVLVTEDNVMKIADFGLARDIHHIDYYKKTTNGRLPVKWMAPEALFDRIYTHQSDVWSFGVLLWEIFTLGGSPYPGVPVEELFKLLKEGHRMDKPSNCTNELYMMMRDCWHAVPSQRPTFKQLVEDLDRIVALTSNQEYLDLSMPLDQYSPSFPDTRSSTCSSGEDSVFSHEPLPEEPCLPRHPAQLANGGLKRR

As for `COc1cc(OC)c(Cl)c(NC(=O)c2csc3c(Nc4ccc(CN5CCOCC5)cn4)ncnc23)c1Cl` [Example 247, N-(2,6-dichloro-3,5-dimethoxyphenyl)-4-(5-(morpholinomethyl)pyridin-2-ylamino)thieno[3,2-d]pyrimidine-7-carboxamide], the half-inhibitory concentration (IC50) on FGFR1 and on FGFR3 was 1 to 100 nM in each case.
In the case of `COc1cc(OC)c(Cl)c(NC(=O)c2csc3c(Nc4ccc(N5CCC(N6CCCC6)CC5)cc4)ncnc23)c1Cl` [Example 202, N-(2,6-dichloro-3,5-dimethoxyphenyl)-4-(4-(4-(pyrrolidin-1-yl)piperidin-1-yl)phenylamino) thieno[3,2-d]pyrimidine-7-carboxamide], the IC50 (usually the midpoint of a concentration-inhibition curve) fell in the range of 100 to 500 nM on FGFR1 and 1 to 100 nM at FGFR3.
Taken in the same sequence, the figures for `CCOC(=O)CNc1ncnc2c(C(=O)Nc3c(Cl)c(OC)cc(OC)c3Cl)csc12` [Example 302, ethyl 2-(7-(2,6-dichloro-3,5-dimethoxyphenyl-carbamoyl)thieno[3,2-d]pyrimidin-4-ylamino)acetate] were 1000 to 5000 nM and 1000 to 5000 nM.
Taken in the same sequence, the figures for `CCN1CCN(Cc2ccc(Nc3ncnc4c(C(=O)Nc5c(Cl)c(OC)cc(OC)c5Cl)csc34)nc2)CC1` [Example 179, N-(2,6-dichloro-3,5-dimethoxyphenyl)-4-(5-((4-ethylpiperazin-1-yl)methyl)pyridin-2-ylamino)thieno[3,2-d]pyrimidine-7-carboxamide] were 1 to 100 nM and 1 to 100 nM.
Turning to `COc1cc(O)c(Cl)c(NC(=O)c2csc3c(N)ncnc23)c1Cl` [Example 217, 4-Amino-N-(2,6-dichloro-3-hydroxy-5-methoxyphenyl)thieno[3,2-d]pyrimidine-7-carboxamide], the results for the 50% inhibitory concentration (IC50) on FGFR1 and on FGFR3 were 1 to 100 nM and 100 to 500 nM, respectively.
